The values below come from ChEMBL document CHEMBL1151541, “Modified thrombin receptor-agonist peptide ligands. Synthesis and conformational analysis of analogs of the N-terminal tripeptide region” (1995).

Numbered stars: 1 amine (or outer) side, 2 acyl side, 3 side chain; on linkers, the order of the positions; unused ones are H or OH. Square brackets hold non-standard residues; d marks the D form. Peptide text beside a SMILES is read from it. * marks the point of attachment. ξ: configuration not given here. X2 = N[C@@H](CO)C(=O)CN([C@@H](Cc1ccccc1)C(=O)[*:2])[*:1]; X3 = C[C@@H](c1ccccc1)[C@H](N[*:1])C(=O)[*:2]; NMe2Phe = CN(C)[C@@H](Cc1ccccc1)C(=O)*; NEtPhe = CCN[C@@H](Cc1ccccc1)C(=O)O; X1 = CCN(CC)[C@@H](Cc1ccccc1)C(=O)*; NMeF = CN[C@@H](Cc1ccccc1)C(=O)O; Tic = O=C(O)[C@@H]1Cc2ccccc2CN1; Aib = CC(C)(N)C(=O)O; Propionyl = CCC(=O)*; Butyryl = CCCC(=O)*; ξLac = CC(O)C(=O)O; For = O=C* Bounds are passed on as bounds.

The species named for the assay is Homo sapiens. The assay is described as follows: Agonist activity in human platelet aggregation. The following applies: read-out: ED50 (the source's name). In kind it is functional.
Consider `CC(C)C[C@H](NC(=O)[C@H]1CCCN1C(=O)[C@@H](NC(=O)[C@@H](N)CO)[C@H](C)c1ccccc1)C(=O)N[C@@H](CCCN=C(N)N)C(=O)N[C@@H](CC(N)=O)C(=O)O`, for which the EC50 was determined as 1.6 µM.
For `CC(C)C[C@H](NC(=O)[C@H](CC(C)C)NC(=O)[C@@H](NC(=O)[C@@H](N)CO)[C@H](C)c1ccccc1)C(=O)N[C@@H](CCCN=C(N)N)C(=O)N[C@@H](CC(N)=O)C(=O)O`, the EC50 worked out at 2 µM.
For the molecule `CC(C)C[C@H](NCC(=O)[C@H](Cc1ccccc1)NC(=O)[C@@H](N)CO)C(=O)N[C@@H](CC(C)C)C(=O)N[C@@H](CCCN=C(N)N)C(=O)N[C@@H](CC(N)=O)C(=O)O`, the EC50 was > 1000 µM.
For the molecule `CC(C)C[C@H](NC(=O)[C@H]1CCCN1C(=O)[C@@H](NC(=O)[C@@H](N)CO)[C@@H](C)c1ccccc1)C(=O)N[C@@H](CCCN=C(N)N)C(=O)N[C@@H](CC(N)=O)C(=O)O`, the EC50 turned out to be 216 µM.
Turning to `CC(C)C[C@H](NC(=O)[C@H](CC(C)C)NC(=O)[C@H](Cc1ccccc1)N(C)C(=O)[C@@H](N)CO)C(=O)N[C@@H](CCCN=C(N)N)C(=O)N[C@@H](CC(N)=O)C(=O)O`, the EC50 was > 1000 µM.
The same measure for `CC(C)C[C@H](NC(=O)[C@H](CC(C)C)NC(=O)[C@](C)(Cc1ccccc1)NC(=O)[C@@H](N)CO)C(=O)N[C@@H](CCCN=C(N)N)C(=O)N[C@@H](CC(N)=O)C(=O)O`: 169 µM; for `CC(C)C[C@H](NC(=O)[C@H]1CCCN1C(=O)[C@H](Cc1ccccc1)NC(=O)[C@@H](N)CO)C(=O)N[C@@H](CCCN=C(N)N)C(=O)N[C@@H](CC(N)=O)C(=O)O`: 5.3 µM.
As to `CC(C)C[C@H](NC(=O)[C@H](CC(C)C)N(C)C(=O)[C@H](Cc1ccccc1)NC(=O)[C@@H](N)CO)C(=O)N[C@@H](CCCN=C(N)N)C(=O)N[C@@H](CC(N)=O)C(=O)O`, the EC50 came out at 70 µM.
Turning to `CC(C)C[C@H](NC(=O)[C@H](CC(C)C)NC(=O)[C@H](Cc1ccccc1)NC(=O)[C@@H](N)CO)C(=O)N[C@@H](CCCN=C(N)N)C(=O)N[C@@H](CC(N)=O)C(=O)O`, the EC50 was 0.92 µM.
As for `CCCC(=O)N[C@@H](Cc1ccccc1)C(=O)N[C@@H](CC(C)C)C(=O)N[C@@H](CC(C)C)C(=O)N[C@@H](CCCN=C(N)N)C(=O)N[C@@H](CC(N)=O)C(=O)O` (Butyryl-FLLRN-OH), the EC50 was 75.1 µM.
For `CC(C)C[C@H](NC(=O)[C@H](Cc1ccccc1)NC=O)C(=O)N[C@@H](CC(C)C)C(=O)N[C@@H](CCCN=C(N)N)C(=O)N[C@@H](CC(N)=O)C(=O)O` (For-FLLRN-OH), the EC50 was 62.4 µM.
On to `CC(C)C[C@H](NC(=O)C(C)(C)NC(=O)[C@H](Cc1ccccc1)NC(=O)[C@@H](N)CO)C(=O)N[C@@H](CCCN=C(N)N)C(=O)N[C@@H](CC(N)=O)C(=O)O` (H-SF[Aib]LRN-OH), for which the EC50 was > 1000 µM.
As for `CC(C)C[C@H](NC(=O)[C@@H]1Cc2ccccc2CN1C(=O)[C@H](Cc1ccccc1)NC(=O)[C@@H](N)CO)C(=O)N[C@@H](CCCN=C(N)N)C(=O)N[C@@H](CC(N)=O)C(=O)O` (H-SF[Tic]LRN-OH), the EC50 amounted to 4.6 µM.
`CC(C)C[C@H](NC(=O)[C@H](CC(C)C)NC(=O)[C@@H]1Cc2ccccc2CN1C(=O)[C@@H](N)CO)C(=O)N[C@@H](CCCN=C(N)N)C(=O)N[C@@H](CC(N)=O)C(=O)O` (H-S[Tic]LLRN-OH): the EC50 was > 1000 µM.
Regarding `CC(C)C[C@H](NC(=O)[C@H](CC(C)C)NC(=O)[C@@H](NC(=O)[C@@H](N)CO)[C@@H](C)c1ccccc1)C(=O)N[C@@H](CCCN=C(N)N)C(=O)N[C@@H](CC(N)=O)C(=O)O` (H-S[X3]LLRN-OH), the EC50 came out at 27 µM.
As to `CCN[C@@H](Cc1ccccc1)C(=O)N[C@@H](CC(C)C)C(=O)N[C@@H](CC(C)C)C(=O)N[C@@H](CCCN=C(N)N)C(=O)N[C@@H](CC(N)=O)C(=O)O` (H-[NEtPhe]LLRN-OH), the EC50 is > 1000 µM.
Take `CN[C@@H](Cc1ccccc1)C(=O)N[C@@H](CC(C)C)C(=O)N[C@@H](CC(C)C)C(=O)N[C@@H](CCCN=C(N)N)C(=O)N[C@@H](CC(N)=O)C(=O)O` (H-[NMeF]LLRN-OH): the EC50 is > 1000 µM.
For `CC(C)C[C@H](NC(=O)[C@H](Cc1ccccc1)NCC(=O)[C@@H](N)CO)C(=O)N[C@@H](CC(C)C)C(=O)N[C@@H](CCCN=C(N)N)C(=O)N[C@@H](CC(N)=O)C(=O)O` (H-[X2]LLRN-OH), the EC50 stood at 382 µM.
As for `CNC(=O)C[C@H](NC(=O)[C@H](CCCN=C(N)N)NC(=O)[C@H](CC(C)C)NC(=O)[C@H](CC(C)C)NC(=O)[C@H](Cc1ccccc1)NC(=O)C(C)O)C(=O)O` (some centres undefined) (H-[ξLac]FLLRD(NHMe)-OH), the figure is 49 µM; as for `CC(C)C[C@H](NC(=O)[C@H](CC(C)C)NC(=O)[C@H](Cc1ccccc1)N(C)C)C(=O)N[C@@H](CCCN=C(N)N)C(=O)N[C@@H](CC(N)=O)C(=O)O` (NMe2Phe-LLRN-OH), > 1000 µM.
Turning to `CCC(=O)N[C@@H](Cc1ccccc1)C(=O)N[C@@H](CC(C)C)C(=O)N[C@@H](CC(C)C)C(=O)N[C@@H](CCCN=C(N)N)C(=O)N[C@@H](CC(N)=O)C(=O)O` (Propionyl-FLLRN-OH), the EC50 was found to be 35 µM.
Regarding `CCN(CC)[C@@H](Cc1ccccc1)C(=O)N[C@@H](CC(C)C)C(=O)N[C@@H](CC(C)C)C(=O)N[C@@H](CCCN=C(N)N)C(=O)N[C@@H](CC(N)=O)C(=O)O` (X1-LLRN-OH), the EC50 is > 1000 µM.
Consider Ac-FLLRN-OH, for which the EC50 is 84.5 µM.
As for H-SFGLRN-OH, the figure is 14.8 µM.
